Results as given in patent publication US10624874B2, “Lasofoxifene modulation of membrane-initiated estrogen signals and methods for tumor treatment” (Zhejiang Jiachi Development Pharmaceuticals LTD, priority 2017, dated 2020).

Columns and labels:
H1299 cells = assay: Proliferation of H1299 lung cancer cells; assay type: cell-based
Description: (§1) A. Cell lines HBE, H1299 and H460 were cultured. Expression of EGFR, ER-α66, ER-α46, ER-α36, ER-β, GPER-1 were tested using Western blot. B. HBE cells and H460 cells were treated with 2 μM tamoxifen or 2 μM lasofoxifene. Proliferation of HBE cells and H460 cells were shown after each treatment. C. H460 cells were treated with vehicle only, or gefitinib, or lasofoxifene, or a combination of gefitinib and lasofoxifene. Proliferation of […] were shown after each treatment. D. H1299 were treated with vehicle only, or gefitinib, or lasofoxifene, or a combination of gefitinib and lasofoxifene. Proliferation of lung cancer cells was shown after each treatment.
(§2) Cells were inoculated into 24 well plates with culture medium and treated using the designated concentration of drugs. Cell number was counted using a cell counter (Count Star). The cell bio-behaviors including total cell number and movement were measured using a real-time cell monitoring system. Briefly, the image was captured at 5 min intervals for 66 h. Cell morphological parameters and the movement of each individual cell was calculated following manufacture's instruction.
(§3) We thus tested the expression of ER-α36 from lung cancer cells.

H460 cells = assay: Proliferation of H460 lung cancer cells; assay type: cell-based; settings: for proliferation of H460 cells: 2 μM, ER-α36+/EGFR+ cells, FIG. 5-B
Description: as §1, §2, §3

xenograft H460 tumors = assay: Growth of xenograft H460 tumors in nude mice; assay type: in vivo; settings: intragastric daily for 2-3 weeks, FIG. 7
Description: FIG. 7: Activity to Inhibition of growth of xenograft-ER-α36+/EGFR+ lung tumor (H460) in nude mice by lasofoxifene (LAS) and/or gefitinib. A. Nude mice were grafted with H460 cells. Tumor size were shown after treatment with gefitinib, 3 mg lasofoxifene per kilogram of mouse body mass (3 mg/kg, Las3.0), 1.5 mg lasofoxifene per kilogram of mouse body mass (1.5 mg/kg, Las1.5), 0.75 mg lasofoxifene per kilogram of mouse body mass (0.75 mg/kg, Las0.75), or a combination of gefitinib and 1.5 mg lasofoxifene per kilogram of mouse body mass (Gef+Las1.5). B. Statistical result of tumor mass from two repeat experiments (n≥6).* and ** mean P<0.05 and P<0.01, respectively.
H460 cells were grown in RPMI-1640 medium containing 10% FBS. When cells are 70-80% confluent and ready for experiments, replace medium with fresh medium for 3 hours. Remove medium and wash cells with medium without FBS for three times. Cells were then trypsinized and suspended in medium, equal volume of cells and support gel was mixed up to 200 μl for each injection. Cells were injected subcutaneously (s.c.) into 4-6 week old nude mice. 1.0˜2.0×10^6 H460 cells were administrated into each nude mouse. […] Tumor size were calculated by the formula: volume=(width)^2×length/2.
To verify in vitro results, we constructed xenograft H460 tumors in nude mice. The tumor size was measured using digital vernier caliper. […]

[1] = test system: MDA-MB231 breast cancer cells; assay: Proliferation of triple negative MDA-MB231 breast cancer cells; assay type: cell-based; settings: ER-α36 positive MDA-MB231, DMEM 10% FBS, FIG. 9
Description: MDA-MB231 cells treated with lasofoxifene in DMEM medium containing 10% FBS. N=3×3; * and ** mean P<0.05 and P<0.01, respectively.

[2] = test system: tamoxifen-resistance MCF-7 cells; assay: Proliferation of acquired tamoxifen-resistance MCF-7 cells; assay type: cell-based, human; settings: FIG. 4B
Description: A. MCF-7 cells were treated with tamoxifen for ten months. Expression of ER-α66, ER-α46, ER-α36, GPER-1 were tested using Western blot. B. After MCF-7 cells were treated with tamoxifen for ten months, cells were treated with either 2 μM tamoxifen or 2 μM lasofoxifene. Proliferation of MCF-7 were shown under each treatment. ** indicates P<0.01.
MCF-7 cells were grown in EMEM medium containing 10% FBS, antibiotics and 0.1 μM tamoxifen for three months. And then increase tamoxifen concentration to 0.5 μM for another three months, Finally, MCF-7 cells were grown in EMEM medium containing 10% FBS, antibiotics and 1 μM tamoxifen for four months. Tamoxifen-resistance MCF-7 cells were tested by counting cell proliferation rate when cells were grown in high concentration tamoxifen.
To verify our hypothesis that overexpressed ER-α36 variant may result in acquired de novo tamoxifen-resistance, we induced MCF-7 cells using tamoxifen for ten months. We found the expression of ER-α66 was decreased ([…], top panel). In contrast, the expression level of ER-α36 was enhanced (FIG. 4A, middle panel). The expression level of GPER1 was not affected (FIG. 4A bottom panel).

HBE cells = assay: Proliferation of HBE cells; assay type: cell-based; settings: 2 μM, cells not expressing ER-α36, FIG. 5-B
Description: as §1, §2, §3

[3] = test system: BT474 breast cancer cells; assay: Proliferation of Herceptin-resistance BT474 breast cancer cells; assay type: cell-based; settings: cells treated with 10 μg/ml Herceptin 3 months; 2 μM lasofoxifene, FIG. 10B
Description: BT474 breast cancer cells were treated with 10 μg/ml Herceptin® in medium for 3 months. A. Cells positively expressed of ER-α36, and decreased the expression level of HER2.

MCF-7 cells = assay: Inhibition of MCF-7 cell division, cells pre-cultured with or without insulin; assay type: cell-based, human; settings: same drug compared between ER-α36 positive (insulin-free) and insulin medium cells, FIG. 3B
Description: A. MCF-7 cells were grown in insulin-free (IL-) medium for three months. Expression of ER-α66, ER-α36, ER-β and GPER were tested using Western blot. B. MCF-7 cells, after cultured in either medium with insulin or without insulin, were treated with tamoxifen or lasofoxifene. […] C. It compares IC50 (μM) of MCF-7 cells responding to tamoxifen or lasofoxifene at the condition of pre-cultured in medium without insulin. *** indicates P<0.001. D. Graph compares IC50 (μM) of MCF-7 cells responding to tamoxifen or lasofoxifene at the condition of pre-cultured in medium with insulin. * indicates P<0.05.
The transcription variant of ER-α36 lacks the AF-1 and AF2 domains. […] It was found located at plasma membrane and cytosol (Boonyaratanakornkit, V. Steroids. 2011 August; 76(9):877-84). […] Phosphorylated IRS interacts with dimer estrogen-ER complexes, which can then translocate into the nucleus and bond with ERE sequence to regulate RNA transcription through the estrogen classical nuclear pathway. […] In contrast, the expression levels of other estrogen receptors were not affected (FIG. 3A).

[4] = test system: Bcl-2 expression in MCF-7 cells; assay: Bcl-2 expression in MCF-7 cells by western blotting; assay type: cell-based, human; settings: for effect on Bcl-2 expression in medium without estrogen: MCF-7, charcoal stripped FBS, phenol red-free EMEM, vs Blank, FIG. 2B
Description: FIG. 2: Inhibition of Bcl-2 expression in MCF-7 cells by lasofoxifene in comparison with tamoxifen. A: MCF-7 cells were cultured in either EMEM medium containing 10% FBS (Normal) or 5% charcoal striped FBS (CS) for 72 hours. Western blotting assay were performed to analyze Bcl-2 expression (CS: charcoal striped). B: MCF-7 cells were cultured in EMEM medium containing insulin and 5% charcoal striped FBS for 72 hours and then treated by lasofoxifene and tamoxifen for 48 hours. Western blotting assay were performed to analyze Bcl-2 expression. C. MCF-7 were cultured in EMEM medium containing insulin and 10% FBS for 72 hours and then treated by lasofoxifene and tamoxifen for 48 hours. Western blotting assay were performed to analyze Bcl-2 expression. […] E. Statistical analysis of three repeats of part C. N=3×3.
HEK-293, MCF-7, MDA-MB-231, HBE, H1299 and H460 cells were grown following ATCC protocol. The expression level of estrogen-bound receptors was measured using western blotting. Briefly, 80-90% confluence cells were harvested and lysed in RIPA buffer or 1×PBS containing 1% triton-x-100 and protease inhibitor cocktail. Total protein concentration was measured using Bio-rad protein staining dye. Western blotting was performed following standard protocol using nitrocellulose membrane (Millipore) and Bio-rad semi-dry transfer system. The equal amount of total protein from cell lysate was loaded to SDS-PAGE for western blotting. The expression level of ER-α36 and 66, ER-β and GPER1 was measured using antibody.
Estrogen and ER complex binds to estrogen response element (ERE) in chromosome to regulate RNA transcription. Bcl-2 is a key member of anti-apoptosis family proteins. Its overexpression has been linked to many kinds of cancers in human being. […] We first assessed whether lasofoxifene inhibited Bcl-2 expression at higher efficiency compared to tamoxifen. MCF-7 cells were grown in DMEM medium containing insulin and 10% FBS or 5% charcoal striped FBS for 72 h. Cells were then treated by lasofoxifene and tamoxifen for 48 h. We confirmed previous study that the expression of Bcl-2 protein was enhanced by culture medium containing estrogen compared with that containing charcoal-stripped (CS) FBS (FIGS. 2A and B, Blank).

gastric cancer cells = assay: Gastric cancer cell division; assay type: cell-based; settings: ER-α36 positive gastric cancer cells, FIG. 8-D
Description: (§4) A: ER-α36 was positively expressed in colon cancer cells. […] NCC: normal colon cells. CCC: colon cancer cells. C: ER-α36 was positively expressed in gastric cancer cells. […] NGC: normal gastric cells. GCC: gastric cancer cells. N=3×3; *** means P<0.001.

ER-β = ER-β (Homo sapiens, UniProt Q92731); settings: higher affinity than raloxifene and tamoxifen; Gennari 2006; cited from earlier work
Sequence of ER-β (Q92731 whole entry, species assumed): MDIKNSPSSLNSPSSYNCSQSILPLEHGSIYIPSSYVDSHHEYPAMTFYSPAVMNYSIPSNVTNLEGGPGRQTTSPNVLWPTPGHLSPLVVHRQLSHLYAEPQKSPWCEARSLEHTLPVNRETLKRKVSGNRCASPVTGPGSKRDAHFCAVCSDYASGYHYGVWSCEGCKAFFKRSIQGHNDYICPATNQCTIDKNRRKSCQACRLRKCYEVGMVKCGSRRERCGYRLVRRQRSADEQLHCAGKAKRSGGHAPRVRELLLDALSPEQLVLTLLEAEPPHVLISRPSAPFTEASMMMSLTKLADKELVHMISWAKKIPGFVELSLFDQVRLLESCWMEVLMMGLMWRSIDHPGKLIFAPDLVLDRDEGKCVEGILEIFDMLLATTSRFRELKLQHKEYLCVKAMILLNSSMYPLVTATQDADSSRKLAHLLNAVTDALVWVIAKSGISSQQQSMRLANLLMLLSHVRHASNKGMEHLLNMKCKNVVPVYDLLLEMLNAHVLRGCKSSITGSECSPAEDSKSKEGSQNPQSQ

colon cancer cells = assay: Colon cancer cell division; assay type: cell-based; settings: ER-α36 positive colon cancer cells, FIG. 8-B
Description: as §4

GPER1 = molecular target: T1, GPER1 (Homo sapiens, UniProt Q99527); assay: Cytosolic Ca2+ in HEK293 cells overexpressing GPER1-EGFP (Fura-red); assay type: cell-based; settings: HEK293 overexpressing GPER1-EGFP vs EGFP vector, FIG. 11B
T1 construct: expressed in transfected cells; host or cells: HEK293
T1 sequence (Q99527 whole entry, species assumed): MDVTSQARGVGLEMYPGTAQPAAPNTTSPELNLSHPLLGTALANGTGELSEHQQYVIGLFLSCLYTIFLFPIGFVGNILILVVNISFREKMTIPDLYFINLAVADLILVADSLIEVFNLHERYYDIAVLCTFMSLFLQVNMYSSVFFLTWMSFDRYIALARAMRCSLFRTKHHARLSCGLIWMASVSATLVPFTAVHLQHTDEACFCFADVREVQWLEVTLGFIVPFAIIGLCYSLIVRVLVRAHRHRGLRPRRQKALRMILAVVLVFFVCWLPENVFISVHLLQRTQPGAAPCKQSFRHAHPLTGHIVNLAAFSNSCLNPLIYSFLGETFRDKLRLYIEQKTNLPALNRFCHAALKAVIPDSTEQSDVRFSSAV
Description: A. HEK293 cells were transfected with either GPER1-EGFP or EGFP alone.
The assays were performed as following. Briefly, cells were grown on a glass-bottomed perfusion chamber mounted on the stage of an inverted confocal microscope (Andor), and then incubated with 2 μM Fura-red AM (Molecular Probes, Eugene, Oreg., USA) for 60 min at 37° C. in normal culture media. Cells were then perfused continuously with Hanks' balanced salt solution (Sigma) containing 1.8 mM CaCl2 and 0.8 mM MgCl2, pH 7.4. […] Cells were perfused with complete culture media without phenol red, and Fura-red was excited at 572 nm. The fluorescence emitted at 657 nm was then collected and recorded using a CCD-based imaging system running software (Andor).

ER-α = molecular target: T2, ER-α (Homo sapiens, UniProt P03372); settings: cited from earlier work
T2 sequence (P03372 311-547 limits assumed): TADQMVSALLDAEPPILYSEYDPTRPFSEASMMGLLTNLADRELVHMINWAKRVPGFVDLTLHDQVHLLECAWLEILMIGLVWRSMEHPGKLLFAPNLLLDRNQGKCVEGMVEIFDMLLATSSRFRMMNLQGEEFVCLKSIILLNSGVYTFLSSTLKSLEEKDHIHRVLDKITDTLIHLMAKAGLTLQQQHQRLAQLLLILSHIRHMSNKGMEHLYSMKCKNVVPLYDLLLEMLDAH

COc1cc2ncnc(Nc3ccc(F)c(Cl)c3)c2cc1OCCCN1CCOCC1 [gefitinib]
proliferation of H1299 cells, gefitinib alone or combined (H1299 cells; concentration not given, FIG. 5D): did not inhibit H1299 cell proliferation
proliferation of H460 cells, gefitinib alone or combined (H460 cells; concentration not given, FIG. 5C): inhibited the proliferation of H460

Oc1ccc2c(c1)CC[C@H](c1ccccc1)[C@@H]2c1ccc(OCCN2CCCC2)cc1 [lasofoxifene, (−)-cis-(5R,6S)-6-phenyl-5-[4-(2-pyrrolidin-1-ylethoxy)phenyl]-5,6,7,8-tetrahydronaphthalen-2-ol]
growth of xenograft H460 tumors (xenograft H460 tumors): inhibited the growth of xenograft H460 tumors
proliferation of triple negative breast cancer cells [1]: the same lasofoxifene activity was also found
proliferation of H1299 cells (H1299 cells; 2 μM, ER-α36 high, weak EGFR, FIG. 5-D): inhibited
proliferation of H460 cells (H460 cells): inhibited
inhibition at 2 µM ([2]; Homo sapiens, MCF7, MCF-7 induced by tamoxifen for over 10 months, read-out: inhibiting activity on proliferation): > 50%
proliferation of HBE cells (HBE cells): Neither tamoxifen nor lasofoxifene affected the proliferation of HBE cells
proliferation of Herceptin-resistance BT474 cells [3]: Sensitive response
inhibition of MCF-7 cell division, without vs with insulin (IC50 comparison) (MCF-7 cells): more effectively inhibited divisions of MCF-7 cell which positively expressed ER-α36
effect on Bcl-2 expression in medium without estrogen ([4]; treated 48 h): neither tamoxifen nor lasofoxifene affected Bcl-2 expression
inhibition of Bcl-2 expression ([4]; MCF-7, medium with insulin and 10% FBS 72 h, treated 48 h, 2.5 μM LAS vs 2.5 μM TAM, FIG. 2C): weaker activity to inhibit Bcl-2 expression compared with tamoxifen
dose dependence of Bcl-2 expression inhibition ([4]; MCF-7, medium with insulin and 10% FBS, 48 h, FIG. 2D): inhibited Bcl-2 expression in a dosage dependent manner
gastric cancer cell division (gastric cancer cells): inhibited gastric cancer cell division
affinity for ER-β relative to those reported for raloxifene and tamoxifen (ER-β): at least 10 fold
colon cancer cell division (colon cancer cells): inhibited colon cancer cell division
cytosolic [Ca2+]i (GPER1): significantly enhanced cytosolic [Ca^2+]i
affinity for ER-α relative to those reported for raloxifene and tamoxifen (ER-α; higher affinity than raloxifene and tamoxifen, Gennari 2006): at least 10 fold
binding affinity to ER-αLBD (ER-α; reported value): 1.5 nM

O=C(c1ccc(OCCN2CCCCC2)cc1)c1c(-c2ccc(O)cc2)sc2cc(O)ccc12 [raloxifene]
cytosolic [Ca2+]i (GPER1): significantly enhanced cytosolic [Ca^2+]i

CC/C(=C(\c1ccccc1)c1ccc(OCCN(C)C)cc1)c1ccccc1 [tamoxifen]
proliferation of H460 cells (H460 cells): exhibited opposite effect
inhibiting activity on proliferation ([2]; 2 μM, MCF-7 induced by tamoxifen for over 10 months): did not inhibit MCF-7 cell proliferation
proliferation of HBE cells (HBE cells): Neither tamoxifen nor lasofoxifene affected the proliferation of HBE cells
inhibition of MCF-7 cell division, without vs with insulin (IC50 comparison) (MCF-7 cells): exerted the opposite effect
effect on Bcl-2 expression in medium without estrogen ([4]; treated 48 h): neither tamoxifen nor lasofoxifene affected Bcl-2 expression
